Tested on: polysorbate degrading activity
Assay: Reduction of polysorbate degrading activity by lipase inhibitors
Type: biochemical, CHO
[1] = 0.001 mM lipase inhibitor, relative to control without inhibitor

Compound | Percent reduction in polysorbate 20 degradation [1] [%] | Percent reduction in polysorbate 20 degradation (0.01 mM lipase inhibitor) | Percent reduction in polysorbate 20 degradation (0.1 mM lipase inhibitor) [%]
CCCCCCCCCCC[C@@H](C[C@@H]1OC(=O)[C@H]1CCCCCC)OC(=O)[C@H](CC(C)C)NC=O [Orlistat, orlistat] | 0 | 27.8%^ | 67
CCCCOc1ccccc1B(O)O [2-Butoxyphenyl boronic acid, 2-butoxyphenylboronic acid] | 0 | 28% | 0
O=C(Nc1cccc(-c2ccccc2)c1)OC1CCCCC1 [URB602, [1-1′-biphenyl]-3-t1-carbamicacid cyclohexyl ester] | 0 | 20% | 0
diethylumbelliferyl phosphate | 48 | 100% | >95
